Data on 2 compounds can be found in publication PMC11818712, “Unveiling the Multitarget Potential of a Rare Caffeoyl Ester from Artemisia capillaris for Diabetes Mellitus: An Integrated In Vitro and In Silico Study” (International Journal of Molecular Sciences, 2025).

Test [1] is described as follows: DPPH radical scavenging activity assay. As to conditions: free radical scavenging. On the procedure:
The DPPH radical scavenging activity was evaluated using methods outlined in Blois (1958), with slight modifications. Different concentrations in 160 μL of MeOH (final concentration = 320 μg/mL for the extracts, fractions, and the compounds) were added to 40 μL of a DPPH:MeOH solution (1.5 × 10^−4 M). After gently mixing the sample and letting it stand at room temperature for 30 min, the optical density was measured at 520 nm using a VERSAmax microplate spectrophotometer (Molecular Devices). […] We used L-ascorbic acid as the positive control. The IC50 values presented here are expressed as the mean ± the standard error of the mean of triplicate experiments.
On the technique in general: The DPPH test is a chemical assay of radical scavenging.

The target of the next test is T1, PTP1B (Homo sapiens, UniProt P18031).
T1 sequence (P18031 1-435): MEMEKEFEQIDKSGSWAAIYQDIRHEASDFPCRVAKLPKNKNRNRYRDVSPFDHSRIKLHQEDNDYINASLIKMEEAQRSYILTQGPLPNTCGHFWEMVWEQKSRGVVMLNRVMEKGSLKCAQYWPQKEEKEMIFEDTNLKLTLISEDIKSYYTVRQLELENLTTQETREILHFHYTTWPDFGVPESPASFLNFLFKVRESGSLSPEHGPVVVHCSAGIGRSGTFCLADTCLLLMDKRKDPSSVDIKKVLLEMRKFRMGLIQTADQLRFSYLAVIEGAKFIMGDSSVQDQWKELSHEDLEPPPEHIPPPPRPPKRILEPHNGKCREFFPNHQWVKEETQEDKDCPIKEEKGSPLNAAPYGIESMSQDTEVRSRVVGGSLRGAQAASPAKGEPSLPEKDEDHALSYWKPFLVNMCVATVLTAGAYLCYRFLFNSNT
In words: PTP1B-inhibitory activity assay (p-NPP substrate). The test is classed as biochemical. On the procedure: Following incubation at 37 °C for 30 min, the reaction was terminated with the addition of 10 M NaOH.

A further test has as its target α-glucosidase (Saccharomyces cerevisiae, UniProt P53341). The test is classed as biochemical. To be noted: at the tested concentration. The protocol: Enzyme inhibition studies were carried out spectrophotometrically in a 96-well microplate reader using a procedure reported by Li. A 60 µL reaction mixture, containing 20 µL of 100 mM phosphate buffer (pH 6.8), 20 µL of 2.5 mM p-NPG in the buffer, and 20 µL of PPT-14 dissolved in 10% DMSO, was added to each well. The enzymatic reaction was initiated by the addition of 20 µL of 10 mM phosphate buffer (pH 6.8), containing 0.2 U/mL α-glucosidase to each well. The plate was incubated at 37 °C for 15 min, and then 80 µL of 0.2 mol/L sodium carbonate solution was added to stop the reaction. Immediately after that, the absorbance was recorded at 405 nm using a VERSA max (Molecular Devices, Sunnyvale, CA, USA) microplate reader. Control samples contained the same reaction mixture, except that an equivalent volume of phosphate buffer was added instead of the sample solution. […] The inhibition (%) was calculated as (Ac − As)/Ac × 100%, where Ac was the absorbance of the control, and As was the absorbance of the sample.

For test [2], the target named is human recombinant aldose reductase (HRAR) (Homo sapiens, UniProt P15121). In words: Human recombinant aldose reductase (HRAR)-inhibitory activity assay (DL-glyceraldehyde substrate). It counts as biochemical.
Experimental: The reaction mixture was prepared as follows: we combined 100 µL of 0.15 mM nicotinamide adenine dinucleotide phosphate (NADPH), 100 µL of 10mM DL-glyceraldehyde as a substrate, and 5 µL of HRAR with the sample (final concentration of 100 µM for the test compound, dissolved in 100% DMSO) in a total volume of 1.0 mL of 100 mM sodium phosphate buffer (pH 6.2). The AR activity was determined by measuring the decrease in nicotinamide adenine dinucleotide phosphate (NADPH) absorption at 340 nm over a period of 1 min using an Ultrospec-2100pro UV–visible spectrophotometer with Microsoft™ Excel, control by SWIFT II software (Amersham Biosciences, Piscataway, NJ, USA). […] The inhibition percentage (%) was calculated as described for the assay of Renilla luciferase, except that the DA sample/min represented a reduction in absorbance for 1 min with the test samples and substrate. The HRAR-inhibitory activity of each sample was expressed in terms of the IC50 value (µM), which was calculated from the log–dose inhibition curve.

α-glucosidase, sequence (P53341 whole entry): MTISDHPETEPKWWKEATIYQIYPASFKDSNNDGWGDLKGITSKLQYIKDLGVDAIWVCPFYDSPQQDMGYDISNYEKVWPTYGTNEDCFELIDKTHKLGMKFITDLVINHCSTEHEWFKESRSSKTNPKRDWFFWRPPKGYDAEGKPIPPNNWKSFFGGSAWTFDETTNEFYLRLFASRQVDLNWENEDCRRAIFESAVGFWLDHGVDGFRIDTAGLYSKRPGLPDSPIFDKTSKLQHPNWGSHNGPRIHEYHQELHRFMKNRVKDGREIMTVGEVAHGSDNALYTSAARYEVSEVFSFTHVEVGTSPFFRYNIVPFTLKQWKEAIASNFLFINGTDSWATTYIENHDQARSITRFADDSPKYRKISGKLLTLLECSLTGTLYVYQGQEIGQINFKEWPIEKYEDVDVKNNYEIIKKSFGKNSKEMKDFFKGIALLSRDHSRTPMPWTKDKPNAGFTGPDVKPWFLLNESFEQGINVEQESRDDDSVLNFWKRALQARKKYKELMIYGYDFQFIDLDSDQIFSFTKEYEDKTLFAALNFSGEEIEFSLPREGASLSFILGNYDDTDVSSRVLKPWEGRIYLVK

One may read the IC50 as the concentration at which inhibition is half-maximal. As to `O=C1O[C@H]([C@@H](O)CO)C(O)=C1O` [Ascorbic acid, reference compound], in test [1], the “DPPH IC50” value was 5.6 µg/mL and the IC50 came out at 31.8 µM.
Regarding `C[C@@](O)(C(=O)O)[C@H](O)COC(=O)/C=C/c1ccc(O)c(O)c1` [PPT-14, 4-O-caffeoyl-2-C-methyl-D-threonic acid], the IC50 on PTP1B worked out at 64.92 ± 0.34 µM; in test [2], 19.5 ± 0.51 µM; in test [1], 14.5 µM. At α-glucosidase, the α-glucosidase inhibitory activity entry is “did not exhibit any α-glucosidase inhibitory activity”. In test [1], the “DPPH IC50” value is given as 4.5 µg/mL.
